# Data taken from article PMC7707092, “Discovery and characterization of ORM‐11372, a novel inhibitor of the sodium‐calcium exchanger with positive inotropic activity” (British Journal of Pharmacology, 2020).
# What was measured:
# [1] = target: T1, h5‐HT2A receptors (Homo sapiens, UniProt P28223); experiment: h5‐HT2A agonism and antagonism, intracellular calcium in recombinant HEK 293 cells; format: cell-based; conditions: maximum concentration 10 μM
# T1 construct: host or cells: recombinant HEK 293
# T1 sequence (P28223 whole entry): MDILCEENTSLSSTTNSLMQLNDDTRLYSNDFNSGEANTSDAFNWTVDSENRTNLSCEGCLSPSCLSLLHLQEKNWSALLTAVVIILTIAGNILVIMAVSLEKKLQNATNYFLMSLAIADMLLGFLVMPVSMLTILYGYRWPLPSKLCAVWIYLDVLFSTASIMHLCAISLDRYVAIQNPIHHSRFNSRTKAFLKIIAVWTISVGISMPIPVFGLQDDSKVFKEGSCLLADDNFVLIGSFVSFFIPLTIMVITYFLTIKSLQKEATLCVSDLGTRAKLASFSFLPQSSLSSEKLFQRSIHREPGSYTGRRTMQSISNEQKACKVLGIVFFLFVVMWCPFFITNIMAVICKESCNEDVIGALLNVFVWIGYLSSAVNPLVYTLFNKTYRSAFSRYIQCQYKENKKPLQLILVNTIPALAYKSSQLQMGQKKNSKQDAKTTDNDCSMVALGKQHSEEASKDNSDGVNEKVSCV
# Procedure: Radioligand binding assays were performed at Eurofins Cerep SA (Celle L'Evescault, France), for testing the inhibition capacity of ORM‐11372 (at 10 μM with two replicates), in over 75 targets. These included receptors (e.g., human A1, A2A, and A3 adenosine receptors; α1 and α2 adrenoceptors; human β1–β3 adrenergic receptors; human D1, D2S, D3, D4.4, and D5 dopamine receptors; EGF and VEGF receptors; human M1–M5 muscarinic ACh receptors; human 5‐HT1A, 5‐HT2A, 5‐HT2B, 5‐HT2C, 5‐HT4e, 5‐HT5A, 5‐HT6, and 5‐HT7 receptors), ion channels (5‐HT3, Ca^2+, ATP‐dependent potassium channel [KATP], voltage‐dependent potassium channel [KV], small‐conductance calcium‐dependent potassium channel [SKCa], Na^+, and Cl^−), and transporters (adenosine, noradrenaline, dopamine, and 5‐HT). Follow‐up functional studies (with five concentrations and two replicates) were performed for 5‐HT2A receptors and noradrenaline transporter. Agonism and antagonism at h5‐HT2A receptors was explored in recombinant HEK 293 cells and intracellular calcium changes were detected using fluorimetry. Noradrenaline uptake was measured by carrying out scintillation counting of [^3H]noradrenaline incorporated into rat hypothalamus synaptosomes.
# [2] = test system: anaesthetized rats with myocardial infarctions; experiment: Haemodynamics in anaesthetized MI and sham rats; format: in vivo; conditions: for free plasma concentration: 417 μg·kg^−1·min^−1; for maximal positive inotropic effect (LV + dP/dt max): i.v. infusion 417 μg·kg^−1·min^−1
# Excerpt: Male Sprague–Dawley rats (Harlan, Netherlands B.V.) were housed in polycarbonate cages (Makrolon IV with stainless steel wire mesh lids). A maximum of five rats were housed per cage with aspen chip bedding (Tapvei Ky, Kaavi, Finland). Rats had free access to water (twice filtered, Espoon Vesi) and a rodent diet (SDS RM1 (P) SQC pelleted diet, Special Diet Services Ltd, Witham, England). The acclimation period before experiments was at least 5 days. In the MI model, rats (7–8 weeks, 200–250 g) were randomized into either the MI or sham group. In this weight range, a rat is considered a young adult, when its evolution phase is characterized by slow growth and its surgical mortality is lower than that of older animals. Male rats were used to minimize the variability of the cardiac response to several stimuli (Zornoff, Paiva, Minicucci, & Spadaro, 2009).
# Rats were anaesthetized with a combination of ketamine (Ketalar® 50 mg·kg−1, i.p.) and medetomidine (Domitor 250 μg·kg^−1, i.p.), intubated, and artificially ventilated with air (Ugo Basile 7025). An MI was induced by the occlusion of the left coronary artery under aseptic conditions (Levijoki, Pollesello, Kaheinen, & Haikala, 2001; Selye, Bajusz, Grasso, & Mendell, 1960). The left coronary artery was ligated at a distance of about 2–3 mm from the origin of the aorta with a silk suture, and the heart was repositioned into the chest. After ligation, the wound was closed carefully. The muscle layer was closed with soluble stitches and skin layers with insoluble stitches, followed by a partial reversal of anaesthesia via the […] administration of atipamezole (Antisedan® 0.3–1 mg·kg^−1, i.m.). The trachea tube was removed, and the trachea and underlying muscle and skin layers were closed immediately. To prevent dehydration, rats were subcutaneously administered with 5 ml of 0.9% NaCl. After surgery, rats were given analgesia with buprenorphine for at least 2 days (0.05 mg·kg^−1, s.c. twice a day). For sham‐operated rats, the same procedure was performed, without ligation. Rats were analysed for 7 days after the MI, for signs of severe acute heart failure such as oedema or breathing difficulties.
# All animals were given multiple ascending infusion doses of ORM‐11372; blinding was not possible. Systemic BP (SP) and left ventricular pressure (LVP) values were measured with pressure transducers (SP for femoral artery: Isotec, Hugo Sachs Elektronic, Germany; a miniature pressure transducer Mikro‐Tip transducer SPR‐249, Millar Instruments was inserted into the left ventricle via the right carotid artery). The signal was amplified (DC‐bridge amplifier type 660, Hugo Sachs Elektronik, Germany), digitized (I/O connector block type SCB‐68, National Instruments, USA), recorded, and analysed (IHME 1.0.9, Fision Ltd, Finland). Left ventricular inotropic effect (LV + dP/dt max), relaxation (LV − dP/dt min), and HR values were analysed from LVP signals.
# Haemodynamics were assessed 7 days after the MI (n = 6) or sham operation (n = 6) as follows. Rats were anaesthetized with isoflurane (2.25–2.5%, Baxter) in carbogen (95% O2 and 5% CO2) and nitrous oxide (1:1), using a small rodent ventilator (Ugo Basile 7025, ~10 ml·kg^−1, 60 strokes·min^−1). The rats were infused with 0.9% NaCl in the […] at the stabilization and baseline levels. ORM‐11372 was administered into MI (n = 6) and sham (n = 6) rats in ascending infusion doses of 1.7, 17, 167, and 417 μg·kg^−1·min^−1. Infusions were administered into the jugular vein of MI rats at the infusion rate of 5 ml·kg^−1·h^−1 (Terumo TE‐311, Belgium). Doses were selected based on a pilot study with healthy rats (Figure S20). The total number of animals in the study was 12 + 2, due to the replacement of two MI rats. […]
smiles,measurement,setting,value
Nc1cccc(-c2ccc(CNc3ccc(F)cc3)o2)c1 [ORM‐11372],agonism / antagonism at 5‐HT2A receptors,[1],Neither agonism nor antagonism
same,improvement of relaxation,"[2]; MI group, lowest infusion dose 1.7 μg·kg^−1·min^−1",24 ± 2%
same,systemic arterial BP,[2]; MI or sham groups,no effect
same,free plasma concentration,[2]; MI rats,6.7 ± 2.5 nM
same,maximal positive inotropic effect (LV + dP/dt max),[2]; MI rats,18 ± 6%
same,free plasma concentration,[2]; sham rats,4.9 ± 0.4 nM
same,maximal positive inotropic effect (LV + dP/dt max),[2]; sham rats,31 ± 6%
